The source of these data is patent publication US20200297820A1, “STIMULATION OF HUMAN MEIBOMIAN GLAND FUNCTION” (The Schepens Eye Research Institute, Inc., priority 2013, published 2020).

For data set [1], the system named is immortalized human meibomian gland epithelial cells. In words: Cellular morphology (terminal maturation, holocrine-like secretion). Format: cell-based. The conditions noted are these: azithromycin 10 μg/ml. The method, then: As an example of these experiments, immortalized human meibomian gland epithelial cells were cultured in the presence or absence of 10% fetal bovine serum. Cells were treated with an ethanol vehicle or azithromycin (10 μg/ml; Santa Cruz Biotechnology) for varying time periods. Cellular morphological appearance was recorded, cells were counted with a hemocytometer, and lipid accumulation was assessed by staining the cells with LipidTOX green neutral lipid stain (Invitrogen, Grand Island, N.Y.), according to reported methods. Staining fluorescent intensities were quantified by using ImageJ (http://rsbweb.nih.gov/ij/index.html). Statistical analyses were performed with Student's t-test (two-tailed, unpaired). Immortalized human meibomian gland epithelial cells ([…]; passages 20-22) were cultured in the presence or absence of 10% fetal bovine serum. Cells were treated with the ethanol vehicle or azithromycin (10 μg/mL) for varying periods. Cellular morphological appearance was recorded, cells were counted with a hemocytometer, and lipid accumulation was assessed by staining cells with LipidTOX green neutral lipid stain (Invitrogen Corp). Staining fluorescent intensities were quantified using ImageJ software (http://rsbweb.nih.gov/ij/index.html). Statistical analyses were performed with t test (2-tailed, unpaired).

The test system of data set [2] is human meibomian gland epithelial cells. The data set is described as follows: Transmission electron microscopy of lysosomal lamellar bodies. Format: cell-based. The conditions noted are these: 10 μg/ml, 5 days. An excerpt: (§1) Cell numbers were enumerated with a hemocytometer. Cellular lipid and lysosome accumulation were examined by staining cells with: Filipin III (a fluorometric probe for identifying unesterified cholesterol), LipidTOX green neutral lipid stain, and LysoTracker® Red DND-99 (a fluorescent technique designed for labeling acidic organelles such as lysosomes). Lysosomal lamellar bodies were identified by transmission electron microscopy. In brief, after culture and treatment on 24 mm polycarbonate membrane transwell inserts (0.4 μm pore size), cells were fixed in a solution of 2% formaldehyde+2.5% glutaraldehyde, in 0.08 M sodium cacodylate buffer, pH 7.4, post-fixed with 2% osmium tetroxide in 0.1 M sodium cacodylate buffer, and stained en bloc with 2% aqueousuranyl acetate. Samples were then dehydrated in graded ethyl alcohol solutions and embedded by using the tEPON-812 epoxy resin kit. Cross sections (1 μM) were stained with 1% toluidine blue in 1% sodium tetraborate solution. Ultra-thin sections (60-90 nm) were imaged with a transmission electron microscope interfaced with a digital CCD camera. For biochemical assessments, cellular lipids were extracted with chloroform and methanol from samples with the same amount of protein. Lipids were then evaluated with high-performance thin-layer chromatography. […] Image data were quantified with ImageJ (http://rsbweb.nib.gov/ij/index.html). […]

The conditions of data set [3]: topical 0.5, 1.0 and 1.5% AZM eye drops, for 24 hours; cited from earlier work.
Data set [4] has as its system human meibomian gland epithelial cells. The data set is described as follows: LysoTracker Red staining of lysosomes. Format: cell-based. The conditions noted are these: 10 μg/ml, 5 days. The method, then:
This section outlines the materials and methods that produced the experimental data. Immortalized human meibomian gland epithelial cells were cultured in the presence or absence of 10% fetal bovine serum. […]
as §1, with “Ultra-thin sections (60-90 nm) were imaged with a transmission electron microscope interfaced with a digital CCD camera. For biochemical assessments, cellular lipids were extracted with chloroform and methanol from samples with the same amount of protein.” left out

Data set [5] shares this test system. The data set is described as follows: Filipin III staining of free (unesterified) cholesterol. Format: cell-based. The conditions noted are these: 10 μg/ml, 5 days. The method, then:
This section outlines the materials and methods that produced the experimental data. Immortalized human meibomian gland epithelial cells were cultured in the presence or absence of 10% fetal bovine serum. After reaching 80-90% confluence (˜5×10^6/well), cells were exposed to the vehicle (0.02% ethanol) or azithromycin (10 μg/ml) for 5 days and then processed for histological and biochemical procedures.
as §1, with “Samples were then dehydrated in graded ethyl alcohol solutions and embedded by using the tEPON-812 epoxy resin kit. Cross sections (1 μM) were stained with 1% toluidine blue in 1% sodium tetraborate solution. Ultra-thin sections (60-90 nm) were imaged with a transmission electron microscope interfaced with a digital CCD camera. For biochemical assessments, cellular lipids were extracted with chloroform and methanol from samples with the same amount of protein.” left out

The subject of another data set is LNCaP cells. The data set is described as follows: Immunoblot of JAK2/STAT5 pathway in positive control cells. Format: cell-based. The protocol: The disclosure turns now to sodium dodecyl sulfate-polyacrylamide gel, electrophoresis, and immunoblots. Cells were directly lysed in Laemmli buffer supplemented with 1% protease inhibitor cocktail (Sigma-Aldrich) and 5% β-mercaptoethanol (Sigma-Aldrich). Lysates were heated at 95° C. for 10 minutes, separated by sodium dodecyl sulfate-polyacrylamide gel electrophoresis on 10% Tris-glycine precast gels, and transferred to polyvinylidene difluoride membranes. Rabbit or mouse antibodies used were specific for phosphorylated Akt (p-Akt), pan-Akt, p-FoxO1, FoxO1, p-JAK2, JAK2, and β-actin; for p-ERK, ERK-2, STAT5, and the precursor form of SREBP-1; and for p-STAT5. Membranes were blocked with 5% bovine serum albumin in Tris-buffered saline containing 0.01% polysorbate 20. All primary antibodies were diluted to 1:1000 in blocking buffer except for p-Akt (1:4000), p-ERK (1:2000), ERK-2 (1:4000), SREBP-1 (1:200), and β-actin (1:10 000). Horseradish peroxidase-conjugated secondary antibodies were goat anti-rabbit IgG and Fc-specific goat anti-mouse IgG diluted to 1:5000. […]
FIGS. 9a, 9b, and 9c illustrate the effects of insulin-like growth factor 1 (IGF-1) and growth hormone (GH) on signaling pathways in human meibomian gland epithelial cells. […] Cell lysates were evaluated on immunoblotting. […]

The test system of data set [6] is immortalized human meibomian gland cells. In words: 13-cis RA-induced late apoptosis/necrosis. Format: cell-based.

Turning to `CC[C@H]1OC(=O)[C@H](C)[C@@H](O[C@H]2C[C@@](C)(OC)[C@@H](O)[C@H](C)O2)[C@H](C)[C@@H](O[C@@H]2O[C@H](C)C[C@H](N(C)C)[C@H]2O)[C@](C)(O)C[C@@H](C)CN(C)[C@H](C)[C@@H](O)[C@]1(C)O` [Azithromycin], the “terminal maturation and holocrine-like secretion” value in data set [1] is “promote terminal maturation”. In addition, the lysosomal lamellar bodies result in data set [2] is recorded as “many of these lysosomes appear to be onion-shaped lamellar bodies”. The tear concentration result in data set [3] was “above 7 μg/ml”. Besides, the “accumulation of lysosomes (LysoTracker)” value in data set [4] was “significantly stimulates the accumulation”. The “accumulation of free cholesterol (Filipin)” value in data set [5] is recorded as “significantly stimulates the accumulation”.
Take GH: human growth hormone: in the data set on LNCaP cells, the “activation of JAK2/STAT5 pathway” value was “activated the JAK2/STAT5 pathway”.
Regarding “IGF-1: recombinant human insulin-like growth factor 1”, the “13-cis RA-induced late apoptosis/necrosis” value in data set [6] is reported as “attenuates”.
